The term pIC50 denotes −log10 of the IC50, conventionally taken in molar units.

The test system of test [1] is HEK293. The experiment in a line: Inhibition of Wnt/beta-catenin signalling in deltaFZD1-10 HEK293 cells transfected with FZD7-DEP-Clamp assessed as effect on WNT-3A induced FZD7-DEP-Clamp signal using furimazine as substrate at 10 uM preincubated for 10 mins followed by WNT-3A stimulation and measured every 2 mins for 1 hr by luminescence based analysis. The format is cell-based. To be noted: Homo sapiens, time 70.0 min.

In test [2] the test system is HEK293. The experiment in a line: Effect on renilla luciferase level deltaFZD1-10 HEK293 cells assessed as reduction in Rluc-bioluminescence at 0.1 to 1000 nM incubated for 24 hrs by luminescence based analysis. Format: functional, cell-based. The note with it: Homo sapiens, dose 0.1-1000 nM.
Test [3] can be described thus: Inhibition of firefly luciferase expression in deltaFZD1-10 HEK293 cells incubated for 24 hrs by microplate reader analysis. The format is functional, cell-based. To be noted: Homo sapiens, HEK293, 24 h.
The test system of test [4] is HEK293. The experiment in a line: Effect on Nano-luciferase activity in deltaFZD1-10 HEK293 cells at 0.1 to 1000 nM incubated for 24 hrs under TK promoter by luminescence based analysis. The format is functional, cell-based. The note with it: Homo sapiens, dose 0.1-1000 nM.
Test [5] relates to MEF. The experiment in a line: Effect on WNT-3A induced Axin2 mRNA expression in mouse MEF cells at 10 uM stimulated with WNT-3A prior to compound addition and measured after 24 hrs by qPCR analysis. The format is functional, cell-based.
Test [6] concerns HEK293. The experiment in a line: Inhibition of Wnt/beta-catenin signalling in deltaFZD1-10 HEK293 cells transfected with HiBit-FZD7 assessed as reduction in topflash signal at 10 uM incubated for 24 hrs by dual luciferase reporter assay. The format is cell-based. The note with it: Homo sapiens. Background: HiBiT is a short tag that completes a luciferase, so light tracks the accessible tagged protein.

A short description of test [7]: Inhibition of Wnt/beta-catenin signalling in deltaFZD1-10 HEK293 cells transfected with HiBit-FZD7 assessed as inhibition of CHIR99021-induced TOPFlash ratio incubated for 24 hrs by dual luciferase reporter assay. The format is cell-based. To be noted: Homo sapiens, HEK293, 24 h.
Test [8] has as its system HEK293. The experiment in a line: Inhibition of firefly luciferase expression in deltaFZD1-10 HEK293 cells assessed as reduction in bioluminescence incubated for 24 hrs by microplate reader analysis. Format: functional, cell-based. The note with it: Homo sapiens, dose 0.1-1000 nM.
Test [9] relates to HEK293. The experiment in a line: Inhibition of Wnt/beta-catenin signalling in deltaFZD1-10 HEK293 cells transfected with HiBit-FZD7 assessed as reduction in Wnt3a induced topflash signal at 10 uM pre-stimulated with Wnt3a followed by compound addition and measured after 24 hrs by dual luciferase reporter assay. To be noted: Homo sapiens. The format is cell-based.

Each structure is given as a SMILES string. pIC50: −log10 of the molar value. The source made the active and inactive calls. The calls are words filed in the database; no cut-off is given here.

As to `Cc1ccc(C(=O)Nc2ccc(SCC(=O)Nc3nc(-c4ccccc4)cs3)cc2)c(C)c1`, in test [1], the inhibition result was “inactive”. Moreover, the result in [2], in [4] and in [5] was inactive. For the same molecule, the pIC50 is 7.62 in test [3] and 7.48 in [7] (read-out: IC50). The inhibition entry in [6] and in test [9] was “Active” in each case. Also, in [7] (read-out: pIC50 (converted)), the IC50 was 33.9 nM. Further, in [8], the inhibition result was “Dose-dependent-effect”.

For the origin of these results see ChEMBL document CHEMBL6120990, “A Putative Frizzled 7-Targeting Compound Acts as a Firefly Luciferase Inhibitor” (J Med Chem, 2024).
